The results in this text go back to US10968225B2, “Compounds and compositions for the treatment of cystic fibrosis” (Fondazione Istituto Italiano Di Tecnologia, priority 2017, dated 2021).

The structures appear in SMILES notation.

In the test the target is T1, mutant CFTR (Homo sapiens, UniProt P13569, DEL508-508).
T1 construct: expressed in transfected cells
T1 sequence (P13569 with tags, fused parts or gaps DEL508-508): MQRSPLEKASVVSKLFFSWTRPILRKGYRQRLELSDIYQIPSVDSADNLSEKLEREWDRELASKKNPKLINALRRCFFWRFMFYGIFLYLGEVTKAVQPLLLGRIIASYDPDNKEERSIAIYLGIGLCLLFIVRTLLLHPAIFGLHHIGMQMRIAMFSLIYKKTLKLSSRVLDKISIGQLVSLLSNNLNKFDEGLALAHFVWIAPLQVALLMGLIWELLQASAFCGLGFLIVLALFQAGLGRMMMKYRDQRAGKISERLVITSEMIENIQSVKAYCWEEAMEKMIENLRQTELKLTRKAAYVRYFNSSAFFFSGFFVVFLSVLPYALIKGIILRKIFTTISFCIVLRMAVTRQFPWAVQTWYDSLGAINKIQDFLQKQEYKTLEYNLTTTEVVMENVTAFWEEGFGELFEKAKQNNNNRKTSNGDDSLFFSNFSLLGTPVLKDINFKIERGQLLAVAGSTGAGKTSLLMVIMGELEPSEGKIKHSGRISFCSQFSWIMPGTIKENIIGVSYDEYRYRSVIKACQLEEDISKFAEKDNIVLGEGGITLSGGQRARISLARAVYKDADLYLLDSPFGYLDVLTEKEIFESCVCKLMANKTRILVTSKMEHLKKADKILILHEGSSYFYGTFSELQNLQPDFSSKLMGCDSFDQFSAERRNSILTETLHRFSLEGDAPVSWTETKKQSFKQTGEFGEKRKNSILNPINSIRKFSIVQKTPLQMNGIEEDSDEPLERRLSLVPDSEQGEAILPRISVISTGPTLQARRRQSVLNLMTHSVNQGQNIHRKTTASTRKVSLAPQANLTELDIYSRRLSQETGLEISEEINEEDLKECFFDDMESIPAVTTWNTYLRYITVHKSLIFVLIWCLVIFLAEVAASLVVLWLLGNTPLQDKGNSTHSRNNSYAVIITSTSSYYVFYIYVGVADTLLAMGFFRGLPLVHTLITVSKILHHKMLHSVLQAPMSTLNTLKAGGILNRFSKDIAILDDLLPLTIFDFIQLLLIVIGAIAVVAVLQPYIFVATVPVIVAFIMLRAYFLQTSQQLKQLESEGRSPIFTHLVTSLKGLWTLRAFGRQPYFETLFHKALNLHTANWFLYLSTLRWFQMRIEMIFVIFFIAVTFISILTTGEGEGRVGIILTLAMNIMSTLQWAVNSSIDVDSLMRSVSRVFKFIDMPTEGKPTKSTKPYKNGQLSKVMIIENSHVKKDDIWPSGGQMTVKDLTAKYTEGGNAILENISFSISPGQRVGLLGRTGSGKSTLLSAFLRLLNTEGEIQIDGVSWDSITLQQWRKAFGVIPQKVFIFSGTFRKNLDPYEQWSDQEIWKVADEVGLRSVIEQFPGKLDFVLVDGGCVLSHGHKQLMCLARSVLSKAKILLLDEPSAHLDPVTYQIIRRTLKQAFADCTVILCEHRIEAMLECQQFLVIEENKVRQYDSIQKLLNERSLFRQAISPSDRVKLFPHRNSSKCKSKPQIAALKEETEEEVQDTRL
The test can be described thus: Fluorescence (HS-YFP) assay for CFTR activity, corrector assay. Format: cell-based. Conditions: CFBE41o- and FRT cells with stable expression of mutant CFTR, read-out: activity (EC50).
The term EC50 denotes the concentration giving half of the maximal effect. As for `Cc1nn(CCC(=O)OC(C)(C)C)c(C)c1S(=O)(=O)N1CCc2c(c(C(F)(F)F)nn2-c2cccc(C(=O)N(C)c3ccc4c(c3)OCO4)c2)C1` [Compound 082, tert-Butyl 3-[4-[[1-[3-[1,3-benzodioxol-5-yl(methyl)carbamoyl]phenyl]-3-(trifluoromethyl)-6,7-dihydro-4H-pyrazolo[4,3-c]pyridin-5-yl]sulfonyl]-3,5-dimethyl-pyrazol-1-yl]propanoate], the EC50 was less than 1000 nM.

Consider `COc1cc(NC(=O)c2cccc(-n3nc(C(F)(F)F)c4c3CCN(C(=O)C(C)(C)C)C4)c2)ccn1` [Compound 083, 3-[5-(2,2-Dimethylpropanoyl)-3-(trifluoromethyl)-6,7-dihydro-4Hpyrazolo[4,3-c]pyridin-1-yl]-N-(2-methoxy-4-pyridyl)benzamide], for which the EC50 is more than 2000 nM.

`Cc1cn2cc(NC(=O)c3cccc(-n4nc(C(F)(F)F)c5c4CCN(C(=O)C(C)(C)C)C5)c3)ccc2n1` [Compound 084, 3-[5-(2,2-Dimethylpropanoyl)-3-(trifluoromethyl)-6,7-dihydro-4H-pyrazolo[4,3-c]pyridin-1-yl]-N-(2-methylimidazo [1,2-a]pyridin-6-yl)benzamide]: the EC50 is more than 2000 nM.

Regarding `COc1ccc(N(C)C(=O)c2cccc(-n3nc(C(F)(F)F)c4c3CCN(C(=O)C(C)(C)C)C4)c2)cn1` [Compound 085, 3-[5-(2,2-Dimethylpropanoyl)-3-(trifluoromethyl)-6,7-dihydro-4Hpyrazolo[4,3-c]pyridin-1-yl]-N-(6-methoxy-3-pyridyl)-N-methylbenzamide], the EC50 was less than 1000 nM.

Take `Cc1nn(CCC(=O)O)c(C)c1S(=O)(=O)N1CCc2c(c(C(F)(F)F)nn2-c2cccc(C(=O)N(C)c3ccc4c(c3)OCO4)c2)C1` [Compound 086, 3-[4-[[1-[3-[1,3-Benzodioxol-5-yl(methyl)carbamoyl]phenyl]-3-(trifluoromethyl)-6,7-dihydro-4H-pyrazolo[4,3-c]pyridin-5-yl]sulfonyl]-3,5-dimethyl-pyrazol-1-yl] propanoic acid]: the EC50 is less than 1000 nM.

`Cc1[nH]nc(C(=O)O)c1S(=O)(=O)N1CCc2c(c(C(F)(F)F)nn2-c2cccc(C(=O)N(C)c3ccc4c(c3)OCO4)c2)C1` [Compound 089, 4-[[1-[3-[1,3-Benzodioxol-5-yl(methyl)carbamoyl]phenyl]-3-(trifluoromethyl)-6,7-dihydro-4H-pyrazolo[4,3-c]pyridin-5-yl]sulfonyl]-5-methyl-1H-pyrazole-3-carboxylic acid]: the EC50 was less than 1000 nM.

Turning to `COc1cc(N(C)C(=O)c2cccc(-n3nc(C(F)(F)F)c4c3CCN(C(=O)C(C)(C)C)C4)c2)ccn1` [Compound 090, 3-[5-(2,2-Dimethylpropanoyl)-3-(trifluoromethyl)-6,7-dihydro-4H-pyrazolo[4,3-c]pyridin-1-yl]-N-(2-methoxy-4-pyridyl)-N-methyl-benzamide], the EC50 is less than 1000 nM.

Regarding `Cc1cn2cc(N(C)C(=O)c3cccc(-n4nc(C(F)(F)F)c5c4CCN(C(=O)C(C)(C)C)C5)c3)ccc2n1` [Compound 091, 3-[5-(2,2-Dimethylpropanoyl)-3-(trifluoromethyl)-6,7-dihydro-4H-pyrazolo[4,3-c]pyridin-1-yl]-N-methyl-N-(2-methylimidazo[1,2-a]pyridin-6-yl)benzamide], the EC50 was in the range of 1000 to 2000 nM.

As to `Cc1noc(C)c1S(=O)(=O)N1CCc2c(c(C(F)(F)F)nn2-c2cccc(C(=O)N(C)c3ccc4c(c3)OC(F)(F)O4)c2)C1` [Compound 096, N-(2,2-Difluoro-1,3-benzodioxol-5-yl)-3-[5-(3,5-dimethylisoxazol-4-yl)sulfonyl-3-(trifluoromethyl)-6,7-dihydro-4H-pyrazolo[4,3-c]pyridin-1-yl]-N-methyl-benzamide], the EC50 is less than 1000 nM.

Take `CC(C)c1nn(-c2cccc(C(=O)N(C)c3ccc4c(c3)OC(F)(F)O4)c2)c2c1CCCC2` [Compound 102, N-(2,2-difluoro-1,3-benzodioxol-5-yl)-3-(3-isopropyl-4,5,6,7-tetrahydroindazol-1-yl)-N-methyl-benzamide]: the EC50 was 1000 to 2000 nM.

Take `Cc1nn(-c2cccc(C(=O)N(C)c3ccc4c(c3)OC(F)(F)O4)c2)c2c1CCCC2` [Compound 103, N-(2,2-Difluoro-1,3-benzodioxol-5-yl)-N-methyl-3-(3-methyl-4,5,6,7-tetrahydroindazol-1-yl)benzamide]: the EC50 was more than 2000 nM.

For the compound `CN(C(=O)c1cccc(-n2nc(C(F)(F)F)c3c2C(Oc2ccc(C(=O)O)cc2)CCC3)c1)c1ccc2c(c1)OC(F)(F)O2` (centres unmarked) [Compound 109, 4-[[1-[3-[(2,2-Difluoro-1,3-benzodioxol-5-yl)-methyl-carbamoyl]phenyl]-3-(trifluoromethyl)-4,5,6,7-tetrahydroindazol-7-yl]oxy]benzoic acid], the 50% effective concentration (EC50) was less than 1000 nM.

With `Cc1nn(-c2cccc(C(=O)N(C)c3ccc4c(c3)OCO4)c2)c2c1CCCC2` [Compound 132, N-(1,3-Benzodioxol-5-yl)-N-methyl-3-(3-methyl-4,5,6,7-tetrahydroindazol-1-yl)benzamide], the EC50 was 1000 to 2000 nM.

Turning to `CC(C)c1nn(-c2cccc(C(=O)N(C)c3ccc4c(c3)OCO4)c2)c2c1CCCC2` [Compound 133, N-(1,3-Benzodioxol-5-yl)-3-(3-isopropyl-4,5,6,7-tetrahydroindazol-1-yl)-N-methyl-benzamide], the EC50 is less than 1000 nM.

`CN(C(=O)c1cccc(-n2nc(C(F)(F)F)c3c2CCN(CCCC(=O)O)C3)c1)c1ccc2c(c1)OCO2` [Compound 135, 4-[1-[3-[1,3-Benzodioxol-5-yl(methyl)carbamoyl]phenyl]-3-(trifluoromethyl)-6,7-dihydro-4H-pyrazolo[4,3-c]pyridin-5-yl]butanoic acid]: the EC50 is more than 2000 nM.

Consider `Cc1nc2ccc(N(C)C(=O)c3cccc(-n4nc(C(F)(F)F)c5c4CCN(S(=O)(=O)c4c(C)noc4C)C5)c3)cc2o1` [Compound 137, 3-[5-(3,5-Dimethylisoxazol-4-yl)sulfonyl-3-(trifluoromethyl)-6,7-dihydro-4H-pyrazolo[4,3-c]pyridin-1-yl]-N-methyl-N-(2-methyl-1,3-benzoxazol-6-yl)benzamide], for which the EC50 is less than 1000 nM.

As for `Cc1nc2cc(F)c(N(C)C(=O)c3cccc(-n4nc(C(F)(F)F)c5c4CCN(S(=O)(=O)c4c(C)noc4C)C5)c3)cc2o1` [Compound 138, 3-[5-(3,5-Dimethylisoxazol-4-yl)sulfonyl-3-(trifluoromethyl)-6,7-dihydro-4H-pyrazolo[4,3-c]pyridin-1-yl]-N-(5-fluoro-2-methyl-1,3-benzoxazol-6-yl)-N-methyl-benzamide], the EC50 was less than 1000 nM.

For the compound `CN(C(=O)c1cccc(-n2nc(C(F)(F)F)c3c2CCN(C2CC(C(=O)O)C2)C3)c1)c1ccc2c(c1)OCO2` (centres unmarked) [Compound 140, 3-[1-[3-[1,3-Benzodioxol-5-yl(methyl)carbamoyl]phenyl]-3-(trifluoromethyl)-6,7-dihydro-4H-pyrazolo[4,3-c]pyridin-5-yl]cyclobutanecarboxylic acid], the EC50 was more than 2000 nM.

As for `CN(C(=O)c1cccc(-n2nc(C(F)(F)F)c3c2CCN(C(=O)C(C)(C)C)C3)c1)c1ccc2nccnc2c1` [Compound 141, 3-[5-(2,2-Dimethylpropanoyl)-3-(trifluoromethyl)-6,7-dihydro-4H-pyrazolo[4,3-c]pyridin-1-yl]-N-methyl-N-quinoxalin-6-yl-benzamide], the EC50 is less than 1000 nM.

As to `COc1ncc(N(C)C(=O)c2cccc(-n3nc(C(F)(F)F)c4c3CCN(C(=O)C(C)(C)C)C4)c2)cn1` [Compound 142, 3-[5-(2,2-Dimethylpropanoyl)-3-(trifluoromethyl)-6,7-dihydro-4H-pyrazolo[4,3-c]pyridin-1-yl]-N-(2-methoxypyrimidin-5-yl)-N-methyl-benzamide], the EC50 was more than 2000 nM.

For `CN(C(=O)c1cccc(-n2nc(C(F)(F)F)c3c2C(Oc2ccc(C(=O)O)c(F)c2)CCC3)c1)c1ccc2c(c1)OC(F)(F)O2` (centres unmarked) [Compound 147, 2-Fluoro-4-[[1-[3-[(2,2-difluoro-1,3-benzodioxol-5-yl)-methyl-carbamoyl]phenyl]-3-(trifluoromethyl)-4,5,6,7-tetrahydroindazol-7-yl]oxy]benzoic acid], the EC50 is less than 1000 nM.

Consider `Cc1nc2cc(F)c(N(C)C(=O)c3cccc(-n4nc(C(F)(F)F)c5c4C(Oc4ccc(C(=O)O)cc4)CCC5)c3)cc2o1` (centres unmarked) [Compound 153, 4-[[1-[3-[(5-Fluoro-2-methyl-1,3-benzoxazol-6-yl)-methyl-carbamoyl]phenyl]-3-(trifluoromethyl)-4,5,6,7-tetrahydroindazol-7-yl]oxy]benzoic acid], for which the EC50 was less than 1000 nM.

As to `[2H]C([2H])([2H])N(C(=O)c1cccc(-n2nc(C(F)(F)F)c3c2C(Oc2ccc(C(=O)O)cc2)CCC3)c1)c1ccc2c(c1)OC(F)(F)O2` (centres unmarked) [Compound 155, 4-[[1-[3-[(2,2-Difluoro-1,3-benzodioxol-5-yl)-(trideuteriomethyl)carbamoyl]phenyl]-3-(trifluoromethyl)-4,5,6,7-tetrahydroindazol-7-yl]oxy]benzoic acid], the EC50 was less than 1000 nM.

For `Cc1nc2ccc(N(C)C(=O)c3cccc(-n4nc(C(F)(F)F)c5c4C(Oc4ccc(C(=O)O)cc4)CCC5)c3)cc2o1` (centres unmarked) [Compound 157, 4-[[1-[3-[Methyl-(2-methyl-1,3-benzoxazol-6-yl)carbamoyl]phenyl]-3-(trifluoromethyl)-4,5,6,7-tetrahydroindazol-7-yl]oxy]benzoic acid], the EC50 was less than 1000 nM.

Take `Cc1nc2ncc(N(C)C(=O)c3cccc(-n4nc(C(F)(F)F)c5c4C(Oc4ccc(C(=O)O)cc4)CCC5)c3)cc2o1` (centres unmarked) [Compound 159, 4-[[1-[3-[Methyl-(2-methyloxazolo[4,5-b]pyridin-6-yl)carbamoyl]phenyl]-3-(trifluoromethyl)-4,5,6,7-tetrahydroindazol-7-yl]oxy]benzoic acid]: the EC50 lay in the range of 1000 to 2000 nM.

Take `COc1cc(OC2CCCc3c(C(F)(F)F)nn(-c4cccc(C(=O)N(C)c5ccc6c(c5)OC(F)(F)O6)c4)c32)ccc1C(=O)O` (centres unmarked) [Compound 161, 4-[[1-[3-[(2,2-Difluoro-1,3-benzodioxol-5-yl)-methyl-carbamoyl]phenyl]-3-(trifluoromethyl)-4,5,6,7-tetrahydroindazol-7-yl]oxy]-2-methoxy-benzoic acid]: the EC50 is less than 1000 nM.
